Usually IC50 stands for the concentration needed to halve the response being measured. In general, viability, T/C refers to the ratio of treated to control.

“And” between values parts separate entries of the source, which are not always exact repeats. Equal values may be shown once. Bounds are passed on as bounds.

In this test the test system is 596521-263-R-J1-PDC complex spheroids, viability % of control. The test is described as follows: Anticancer human tumor 596521-263-R-J1-PDC patient-derived soft tissue sarcoma cell line growth inhibition [GQUAD]. Particulars: for viability, T/C: stronger effect = lower value. From the text: DNA G-quadruplex Stabilizer Agents in Combinations in Complex Spheroids
A high-throughput screen of multi-cell type tumor spheroids was designed to identify active combinations of DNA G-quadruplex stabilizer agents and targeted small molecules. Complex spheroids include a stromal component modeled by human endothelial cells (HUVEC) and fibroblasts modeled by human mesenchymal stem cells (MSCs). The concentration ranges selected for each drug and investigational agent were based upon clinically achievable concentrations if the clinical Cmax of the agent was known.
Compounds. The drugs and investigational agents: pidnarulex (CX-5461; NSC782164), APTO-253 (NSC789042), BRACO-19 (NSC847499), peposertib (NSC802822), ceralasertib (NSC780249), elimusertib (NSC800525), camonsertib (NSC841442), AZD-1390 (NSC803789), olaparib (NSC753686), talazoparib (NSC767125), ART-558 (NSC835418), sotorasib (NSC818433), MRTX-1133 (NSC836407), SN-38 (NSC673596), topotecan (NSC609699), etoposide (NSC141540), doxorubicin (NSC123127), gemcitabine (NSC613327), 5-fluorouracil (NSC19893), paclitaxel (NSC125973), vemurafenib (NSC761431), panobinostat (NSC761190), R-306465 (JNJ-16241199; NSC773264), adavosertib (NSC754352), TP-3654 (NSC805149), carboplatin (NSC241240), KSQ-4279 (NSC840948), and staurosporine (NSC755774) were obtained from the National Cancer Institute (NCI) Developmental Therapeutics Program Chemical Repository (34). The FDA-approved anticancer drug set is available from the NCI Developmental Therapeutics Program. […] The stock solutions were prepared in dimethyl sulfoxide (DMSO, Sigma-Aldrich, St. Louis, MO, cat. D2650) at 800-fold the tested concentration and stored at -70 degrees C prior to their use. All drugs and investigational agents were tested over a range starting from a high concentration at or near the clinical Cmax and decreasing in half-log increments. If the clinical Cmax for an agent had not been determined, the highest concentration tested was 10 microM.
2.3 Cell Culture. All cells were maintained in an incubator at 37 degrees C and 5% CO2 with 95% humidity. The PDC lines were cultured according to standard operating procedures established by the NCI PDMR. All PDCs were thawed and cultured in Matrigel-coated flasks prepared with a working solution of 1X Ham's F-12 nutrient mix, without supplementation (Invitrogen, cat. 11765054), 100 U/mL penicillin-streptomycin (Invitrogen, cat. 15140122), and 2.5% Matrigel (Corning Inc., cat. 354248) for the first three passages. The 857933-349-R-J2-PDC line was cultured in 6C/Colon 1B media, which includes advanced DMEM/F-12 (Thermo Fisher Scientific, cat. 12634028), 10 mM HEPES (Thermo Fisher Scientific, cat. 15630080), 1X GlutaMAX supplement (Thermo Fisher Scientific, cat. 35050061), 0.1 mg/mL primocin (InvivoGen, cat. ant-pm-2), 10% defined fetal bovine serum, heat inactivated (HyClone Laboratories Inc., cat. SH30070.03HI), 50% L-WRN conditioned media (ATCC, cat. CRL-3276), 1.25 mM N-Acetyl-L-cysteine (Sigma-Aldrich, cat. A9165), 10 mM nicotinamide (Sigma-Aldrich, cat. N0636), 1X B-27 supplement (Thermo Fisher Scientific, cat. 17504044), 1X N-2 supplement (Thermo Fisher Scientific, cat. 17502048), 10 microM Y-27632 dihydrochloride (Tocris Bioscience, cat. 1254), and 50 ng/mL human EGF recombinant protein (Thermo Fisher Scientific, cat. PHG0311). The 485176-168-R4-J1-PDC line was cultured in Panc media, which includes all 6C/Colon 1B media components plus 100 ng/mL human FGF-10 (Thermo Fisher Scientific, cat. 100-26), 500 nM SB-431542 (Selleckchem, cat. S1067), and gastrin (Tocris, cat. 3006).
[…]
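Note: spheroids exposed to drugs for 7 days before viability reading.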

On to `Nc1ccn(C2OC(CO)C(O)C2(F)F)c(=O)n1` (configuration not stated) + CN(C)c1ccc(Nc2c3ccc(NC(=O)CCN4CCCC4)cc3nc3cc(NC(=O)CCN4CCCC4)ccc23)cc1, for which the IC50 (curve of first compound, second compound 0.0316 µM) was below 31.6 nM; the IC50 (curve of first compound, second compound 0.1 µM) is below 31.6 nM; the IC50 (curve of first compound, second compound 0.316 µM) came to 121 nM; the IC50 (curve of first compound, second compound 1 µM) is below 31.6 nM; the IC50 (curve of first compound, second compound 3.16 µM) was below 31.6 nM; the IC50 (curve of first compound, second compound 10 µM) is below 31.6 nM. In addition, the viability, T/C (second compound 0.0316 µM, first compound 0.0316 µM) is 48.3%; the viability, T/C (second compound 0.0316 µM, first compound 0.1 µM) was 39.2%; the viability, T/C (second compound 0.0316 µM, first compound 0.316 µM) was 40.5%; the viability, T/C (second compound 0.0316 µM, first compound 1 µM) is 37.3%; the viability, T/C (second compound 0.0316 µM, first compound 3.16 µM) was 44.5%; the viability, T/C (second compound 0.0316 µM, first compound 10 µM) is 40.2%. Moreover, the viability, T/C by setting is: (second compound 0.1 µM, first compound 0.0316 µM) 53.9%; (second compound 0.1 µM, first compound 0.1 µM) 42.2%; (second compound 0.1 µM, first compound 0.316 µM) 40%; (second compound 0.1 µM, first compound 1 µM) 39.1%; (second compound 0.1 µM, first compound 3.16 µM) 44.1%; (second compound 0.1 µM, first compound 10 µM) 38.1%. The viability, T/C is 53.6% (second compound 0.316 µM, first compound 0.0316 µM); 46.6% (second compound 0.316 µM, first compound 0.1 µM); 48.7% (second compound 0.316 µM, first compound 0.316 µM); 49.8% (second compound 0.316 µM, first compound 1 µM); 40.1% (second compound 0.316 µM, first compound 3.16 µM); 39.4% (second compound 0.316 µM, first compound 10 µM). Also, the viability, T/C runs as follows: (second compound 1 µM, first compound 0.0316 µM) 46.7%; (second compound 1 µM, first compound 0.1 µM) 41.5%; (second compound 1 µM, first compound 0.316 µM) 39.3%; (second compound 1 µM, first compound 1 µM) 42.2%; (second compound 1 µM, first compound 3.16 µM) 39%; (second compound 1 µM, first compound 10 µM) 40.5%. Besides, the viability, T/C by setting is: (second compound 3.16 µM, first compound 0.0316 µM) 44.7%; (second compound 3.16 µM, first compound 0.1 µM) 44.2%; (second compound 3.16 µM, first compound 0.316 µM) 40.6%; (second compound 3.16 µM, first compound 1 µM) 42.5%; (second compound 3.16 µM, first compound 3.16 µM) 40.5%; (second compound 3.16 µM, first compound 10 µM) 35.6%. In addition, the viability, T/C was 42.4% (second compound 10 µM, first compound 0.0316 µM); 37.4% (second compound 10 µM, first compound 0.1 µM); 33.4% (second compound 10 µM, first compound 0.316 µM); 35.2% (second compound 10 µM, first compound 1 µM); 38% (second compound 10 µM, first compound 3.16 µM); 38.2% (second compound 10 µM, first compound 10 µM).
For the molecule `COc1ncnc(C2CC2)c1-c1ncc2cnn(Cc3ccc(-c4nc(C(F)(F)F)cn4C(C)C)cc3)c2n1`, the viability, T/C was 98.6% and 108% and 92.8% (compound 0.0316 µM); 105% and 94.8% and 99.3% (compound 0.1 µM); 97.8% and 85.6% and 98.5% (compound 0.316 µM); 100% and 65.5% and 81.5% (compound 1 µM); 99.2% and 28.8% and 94.3% (compound 3.16 µM). Besides, the IC50 (curve of compound) is > 10000 nM and 1580 nM.
Regarding `CN(C)c1ccc(Nc2c3ccc(NC(=O)CCN4CCCC4)cc3nc3cc(NC(=O)CCN4CCCC4)ccc23)cc1`, the viability, T/C was 102% [middle of 12 runs] (compound 0.0316 µM); 105% [middle of 12 runs] (compound 0.1 µM); 104% [middle of 12 runs] (compound 0.316 µM); 105% [middle of 12 runs] (compound 1 µM); 95.9% [middle of 12 runs] (compound 3.16 µM); 67% [middle of 12 runs] (compound 10 µM). Besides, the IC50 (compound alone, run of 04/22/2024) is above 10000 nM.
For `Cc1cccc(N(C)C(=O)C2C(O)CCN2c2nc(C)cc(C(F)(F)F)c2C#N)c1` (configuration not stated), the viability, T/C (compound 0.0316 µM) was 113% and 94.7% and 106%; the viability, T/C (compound 0.1 µM) was 103% and 98.2% and 94.6%; the viability, T/C (compound 0.316 µM) was 95.1% and 106% and 98.1%; the viability, T/C (compound 1 µM) was 101% and 98.4% and 112%; the viability, T/C (compound 3.16 µM) was 89.7% and 108% and 114%; the viability, T/C (compound 10 µM) was 91.4% and 96.3% and 101%. Moreover, the half-inhibitory concentration (IC50) (curve of compound) was above 10000 nM.

The values above are taken from PubChem BioAssay AID2060500 (Molecular Pharmacology Branch, DTP, NCI, 2025).
